In US6660263B2, “Oocydin and methods of use for protection of plants from Oomyocyte pathogens” (HMV Corporation, priority 2000, dated 2003):
≈ marks a conversion by molar mass, not a printed value. Where a SMILES comes first, the peptide text is derived from it. Bridges are numbered along the chain shown (N, C = ends). [ ]: non-standard residue; d: D form. The star is where a group is joined. Tetradecanoyl(3R-OH) = CCCCCCCCCCC[C@@H](O)CC(=O)*; Asp(3S-OH) = N[C@H](C(=O)O)[C@H](O)C(=O)O; Thr(4-Cl) = N[C@H](C(=O)O)[C@H](O)CCl; aThr = C[C@H](O)[C@H](N)C(=O)O; dDab = NCC[C@@H](N)C(=O)O; Dab = NCC[C@H](N)C(=O)O; Dhb = C/C=C(\N)C(=O)O

Legend:
Phytophthora parasitica = assay: MIC in PD broth, 24-well plate
Phytophthora cinnamomi = assay: MIC in PD broth, 24-well plate
P. ultimum = assay: Plate bioassay of fractions on PDA; assay type: cell-based, Pythium ultimum; details: contents of the single HPLC peak (retention time 19.7 min) against P. ultimum
Protocol: Bioassays. A simple plate bioassay test was used to detect bioactivity of various fractions in the purification of oocydin. Aliquots (10-20 μl) of sample were placed on a PDA plate, dried by placement under a hood having positive airflow, and then inoculated with 0.5×0.5 cm plugs of agar containing P. ultimum. The agar plugs were placed in each of the quadrants of the plate and then incubated for 36-48 hr at 23 C. Antioomycetous activity was apparent as a zone of growth inhibition.

Verticillum dahliae = assay type: cell-based
Geotrichum candidum = assay type: cell-based
[1] = tested on: normal human mammary cell line (cc2551 HMEC); assay: Neutral red cytotoxicity assay; assay type: cell-based; details: 3 days of exposure, preliminary studies
Protocol: (§1) Oocydin A was tested also against human cancer cell lines BT-20, MCF 7(American Type Culture Collection, Bethesda, Md., USA) and compared with activity against a normal human mammary human cell line (cc2551 HMEC from Clonetics, San Diego, Calif., USA). These cells were exposed to serial dilutions of oocydin A. After 3 days of exposure, the cells were stained with neutral red and the absorbance measured at 540 nm. For non-adherent cells a modification of the staining protocol of Berent, S. L. et al., (1986) Nucleic Acid Res 14, 8997-9015 was used. The results were recorded as IC50 values.

Phytophthora citrophora = assay: MIC in PD broth, 24-well plate; assay type: cell-based
Rhizoctonia solani = assay type: cell-based
Aspergillus fumigatus = assay type: cell-based
Pythium ultimum = assay: MIC in PD broth, 24-well plate; assay type: cell-based
Phytophthora spp. = assay: MIC in PD broth, 24-well plate; assay type: cell-based; details: the most sensitive Oomycetes
Alternaria tomato = assay type: cell-based
[2] = tested on: MCF-7 (breast cancer cell line); assay: Neutral red cytotoxicity assay; assay type: cell-based, human; details: 3 days of exposure, preliminary studies
Protocol: as §1

Sclerotinia sclerotiorum = assay type: cell-based

COCC(=O)N(c1c(C)cccc1C)C(C)C(=O)OC (racemic) [Metalaxyl, N-(2,6-dimethylphenyl)-N-(methoxyacetyl)-DL-alanine methyl ester, reference compound]
MIC (Phytophthora parasitica; Phytophthora nicotianae, read-out: Metalaxyl MIC): 0.06 µg/mL (≈ 0.215 µM)
MIC (Phytophthora cinnamomi; Phytophthora cinnamomi, read-out: Metalaxyl MIC): 0.06 µg/mL (≈ 0.215 µM)

CC(=O)OC1CC(=O)O[C@H]2C[C@H](CC/C(Cl)=C\C/C=C\1C)O[C@H]2[C@@H](O)/C=C(\C)CC(=O)O (stereo partly shown) [oocydin A]
bioassay activity (P. ultimum): active
Minimum inhibitory concentration (MIC) (Phytophthora parasitica; Phytophthora parasitica): circa 0.03 μg ml^−1
Oocydin MIC Test 1 (Phytophthora parasitica; Phytophthora parasitica, Test 1): 0.03 µg/mL
Oocydin MIC Test 2 (Phytophthora parasitica; Phytophthora parasitica, Test 2): 0.05 µg/mL
activity in plate tests (Verticillum dahliae): no activity
effect on growth (Histoplasma capsulatum): no effect
activity on PDA plates (Geotrichum candidum): inactive
Minimum inhibitory concentration (MIC) (Phytophthora cinnamomi; P. cinnamomi): circa 0.03 μg ml^−1
Oocydin MIC Test 1 (Phytophthora cinnamomi; Phytophthora cinnamomi, Test 1): 0.03 µg/mL
Oocydin MIC Test 2 (Phytophthora cinnamomi; Phytophthora cinnamomi, Test 2): 0.02 µg/mL
IC50 [1]: 0.6 µg/mL (≈ 1.27 µM)
Minimum inhibitory concentration (MIC) (Phytophthora citrophora; P. citrophora): circa 0.03 μg ml^−1
Oocydin MIC Test 1 (Phytophthora citrophora; Phytophthora citrophora, Test 1): 0.03 µg/mL
Oocydin MIC Test 2 (Phytophthora citrophora; Phytophthora citrophora, Test 2): 0.02 µg/mL
activity on PDA plates (Rhizoctonia solani): only slight inhibition of growth
effect on growth (Aspergillus fumigatus): no effect
Oocydin MIC Test 1 (Pythium ultimum; Test 1, no visible growth after 48 or 72 hr at 23° C.): 0.11 µg/mL
Oocydin MIC Test 2 (Pythium ultimum; Test 2, no visible growth after 48 or 72 hr at 23° C.): 0.39 µg/mL
MIC (Phytophthora spp.): approximately 0.03 μg ml^−1
effect on growth (Candida parapsilosis): no effect
effect on growth (Candida albicans): no effect
activity in plate tests (Alternaria tomato): no activity
IC50 [2]: 0.42 µg/mL (≈ 0.892 µM)
activity on PDA plates (Sclerotinia sclerotiorum): only slight inhibition of growth
effect on growth (Cryptococcus neoformans): no effect

C/C=C1\NC(=O)[C@H]([C@H](C)O)NC(=O)[C@H](CCN)NC(=O)[C@H](CCCCN)NC(=O)[C@H](CC(=O)O)NC(=O)[C@@H](CCN)NC(=O)[C@@H](NC(=O)C[C@H](O)CCCCCCCCCCC)COC(=O)[C@H]([C@H](O)CCl)NC(=O)[C@H]([C@H](O)C(=O)O)NC1=O [pseudomycin B, reference compound] ({Tetradecanoyl(3R-OH)}-S[dDab]DK[Dab][aThr][Dhb][Asp(3S-OH)][Thr(4-Cl)]; ester 1-C; N-terminus assumed)
MIC (Histoplasma capsulatum): < 1.0 µg/mL
MIC (Candida parapsilosis): < 1.0 µg/mL
MIC (Candida albicans): < 1.0 µg/mL
MIC (Cryptococcus neoformans): < 1.0 µg/mL
